Where a name gives a salt, the structure may show the parent alone. Read-outs that look alike come from different tables or passages of the source.
Columns and labels:
[1] = target: acetylcholinesterase (AChE, electric eel) (Electrophorus electricus, UniProt O42275); conditions: for Type of Inhibition / Ki' (uncompetitive inhibition) / Ki: AChE, electric eel; for Ki' (uncompetitive inhibition) / Grade of inhibition in% AChE / Ki: mean ± SE; for Ki: read-out: Ki (competitive inhibition)
Excerpt: (§1) In this study, carboxamides with different triterpenoic backbones (ursolic, oleanolic, maslinic, betulinic, and platanic acids), and various amine residues (Scheme 1), were investigated.
(§2) A TECAN SpectraFluorPlus working in the kinetic mode and measuring the absorbance at λ = 415 nm was used for the enzymatic studies. Acetylcholinesterase (from Electrophorus electricus), 5,5′-dithiobis-(2-nitrobenzoic acid) (DTNB) and acetylthiocholine iodide were purchased from Sigma. Butyrylcholinesterase (from equine serum) was purchased from Fluka. Preparation of the solutions, assay procedure, as well as molecular modeling conditions can be found in the Supplementary Materials.
(§3) 3.1 Preparation of the solutions
(§4) Preparation of 50 mM Tris-HCl buffer solutions: Tris(hydroxymethyl)-aminomethane (606 mg) was dissolved in bidestilled water (100 mL) and adjusted with HCl to a pH of 8.0 ± 0.1. Buffers were freshly prepared and stored in the refrigerator. AChE solution 2.005 U/mL: the enzyme (271 U/mg, 0.037 mg) was dissolved in freshly prepared buffer pH 8.0 (5 mL) containing NaN3 (0.98 mg). BChE solution 2.040 U/mL: the enzyme (7.54 U/mg, 1.353 mg) was dissolved in freshly prepared buffer pH 8.0 (5 mL) containing NaN3 (0.98 mg). DTNB solution 3 mM: DTNB (23.8 mg) was dissolved in freshly prepared buffer pH 8.0 (20 mL) containing NaCl (116.8 mg) and MgCl2 (38.0 mg). ATChI solution 15 mM:
(§5) ATChI (43.4 mg) was dissolved in bidestilled water (10 mL). All solutions were stored in Eppendorf caps in the refrigerator or in the freezer, if necessary. The pure compounds were […]
(§6) dissolved in bidistilled water. The final concentrations for the enzymatic assay were obtained by diluting the stock solution with bidistilled water.
(§7) A mixture of the DTNB solution (125 µL), enzyme solution (25 µL) and compounds solutions (25 µL, 3 different concentrations and once blank water) was prepared and incubated at 30 °C for 20 min. The substrate (25 µL, 4 different concentrations) was added to start the enzymatic reaction. The absorbance data (l = 415 nm) was recorded under a controlled temperature of 30 °C for 30 min at 1 min intervals. The substrate concentrations in the test were as follows: […]
(§8) determined as the quotient of the slopes (compound divided by blank) of the linear ranges.
(§9) The used substrate concentration was 0.625 mM. The absorbance data was recorded under a controlled temperature of 30 °C for 10 min.

[2] = target: T1, butyrylcholinesterase (BChE, equine serum) (Equus caballus, UniProt P81908); experiment: Ellman's assay, butyrylcholinesterase inhibition; type: biochemical; conditions: for Type of Inhibition / Ki′ (uncompetitive inhibition) / Ki: BChE, equine serum; for Ki′ (uncompetitive inhibition) / Ki: Ellman's assay; for Ki: read-out: Ki (competitive inhibition); for Grade of inhibition in% BChE: mean ± SE
T1 construct: Butyrylcholinesterase (from equine serum) was purchased from Fluka; purchased Fluka; host or cells: equine serum
Excerpt: as §1, §2, §3, §4, §5, §6, §7, §8, §9

[3] = read-out: Grade of inhibition in% BChE

T1 sequence (P81908 whole entry): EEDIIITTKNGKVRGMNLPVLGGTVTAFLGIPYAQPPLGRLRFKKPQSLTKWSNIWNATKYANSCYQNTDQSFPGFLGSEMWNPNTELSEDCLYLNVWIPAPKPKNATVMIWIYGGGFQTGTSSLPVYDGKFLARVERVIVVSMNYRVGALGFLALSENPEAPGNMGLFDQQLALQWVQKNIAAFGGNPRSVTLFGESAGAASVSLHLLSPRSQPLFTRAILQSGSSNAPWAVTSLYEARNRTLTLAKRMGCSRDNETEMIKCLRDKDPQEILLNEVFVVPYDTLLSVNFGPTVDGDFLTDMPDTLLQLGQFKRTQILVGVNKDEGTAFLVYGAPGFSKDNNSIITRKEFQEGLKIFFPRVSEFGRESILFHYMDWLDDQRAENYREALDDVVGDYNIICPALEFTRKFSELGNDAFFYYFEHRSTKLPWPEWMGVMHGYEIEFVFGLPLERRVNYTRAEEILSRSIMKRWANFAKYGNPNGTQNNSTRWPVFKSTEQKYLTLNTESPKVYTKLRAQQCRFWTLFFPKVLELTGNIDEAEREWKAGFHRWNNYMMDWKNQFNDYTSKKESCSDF
acetylcholinesterase (AChE, electric eel), sequence (O42275 24-633): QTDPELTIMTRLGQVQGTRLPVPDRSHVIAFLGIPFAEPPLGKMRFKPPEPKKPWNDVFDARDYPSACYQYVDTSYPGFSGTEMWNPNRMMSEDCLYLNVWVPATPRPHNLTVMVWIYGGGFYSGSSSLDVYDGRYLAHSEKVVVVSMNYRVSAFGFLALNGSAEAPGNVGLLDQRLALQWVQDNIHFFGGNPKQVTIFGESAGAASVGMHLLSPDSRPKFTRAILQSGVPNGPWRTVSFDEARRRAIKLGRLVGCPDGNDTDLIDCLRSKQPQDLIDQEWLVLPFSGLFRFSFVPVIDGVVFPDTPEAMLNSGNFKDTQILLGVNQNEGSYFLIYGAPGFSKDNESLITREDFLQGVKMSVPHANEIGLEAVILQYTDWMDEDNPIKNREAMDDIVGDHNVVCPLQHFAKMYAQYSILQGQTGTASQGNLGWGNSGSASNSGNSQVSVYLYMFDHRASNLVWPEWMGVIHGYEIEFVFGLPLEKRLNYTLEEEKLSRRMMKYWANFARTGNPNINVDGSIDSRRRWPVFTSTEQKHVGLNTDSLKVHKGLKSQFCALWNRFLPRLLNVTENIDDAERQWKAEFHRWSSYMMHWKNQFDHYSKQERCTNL

| SMILES | Type of Inhibition [1] | Ki' (uncompetitive inhibition) [1] [µM] | Grade of inhibition in% AChE ([1]; c = 30 µM) [%] | Ki [1] [µM] | Type of Inhibition [2] | Ki′ (uncompetitive inhibition) [2] [µM] | Ki [2] [µM] | Grade of inhibition in% BChE ([2]; c = 30 µM) [%] | Grade of inhibition in% AChE ([1]; c = 10 µM) | Grade of inhibition in% BChE ([2]; c = 10 µM) [%] | selectivity F (percent inhibition for AChE divided by percent inhibition for BChE) ([2]; towards BChE) | inhibition at 10 µM [2, 3] [%] | inhibition at 30 µM [2, 3] [%] |
| --- | --- | --- | --- | --- | --- | --- | --- | --- | --- | --- | --- | --- | --- |
| CC(=O)[C@@H]1CC[C@]2(C(=O)NCCN3CCCC3)CC[C@]3(C)[C@H](CC[C@@H]4[C@@]5(C)CC[C@H](O)C(C)(C)[C@@H]5CC[C@]43C)[C@@H]12 [Compound 40] | mixed-type | 23.63 ± 0.39 | 33.06 ± 0.45 | 27.9 ± 2.99 | mixed-type | > 10 | 0.45 ± 0.01 | 89.15 ± 0.44 | – | – | – | – | – |
| CC(=O)O[C@H]1CC[C@]2(C)[C@H]3CC[C@@H]4[C@H]5[C@H](C(C)=O)CC[C@]5(C(=O)NCCN)CC[C@@]4(C)[C@]3(C)CC[C@H]2C1(C)C [Compound 15] | mixed-type | 6.83 ± 0.17 | – | 3.06 ± 0.38 | mixed-type | 17.14 ± 1.67 | 11.9 ± 1.17 | – | 44.71 ± 0.24% | 29.55 ± 2.97 | – | – | – |
| CC1(C)CCC2(C(=O)NCCN3CCCCC3)CCC3(C)C(=CCC4C5(C)CC(O)C(O)C(C)(C)C5CCC43C)C2C1 (stereo not drawn) [Compound 48, (2α,3β)-N-(2-Piperidin-1-ylethyl)-2,3-dihydroxy-olean-12-en-28-amide] | – | – | – | – | mixed-type | 6.21 ± 0.47 | 2.26 ± 0.05 | – | 9.32 ± 0.29% | 69.30 ± 1.12 | – | – | – |
| C[C@@H]1CC[C@]2(C(=O)NCCN)CC[C@]3(C)C(=CCC4[C@@]5(C)CC[C@H](O)C(C)(C)C5CC[C@]43C)C2[C@H]1C (stereo partly drawn) [Compound 16] | – | – | – | – | mixed-type | 12.15 ± 0.45 | 5.55 ± 0.12 | – | 28.54 ± 0.51% | 64.10 ± 1.04 | – | – | – |
| CC(=O)O[C@H]1CC[C@]2(C)[C@H]3CC[C@@H]4[C@H]5[C@H](C(C)=O)CC[C@]5(C(=O)NCCN5CCCCC5)CC[C@@]4(C)[C@]3(C)CC[C@H]2C1(C)C [Compound 45, (3β)-N-(2-Piperidin-1-ylethyl)-3-acetyloxy-20-oxo-30-norlupan-28-amide] | – | – | – | – | mixed-type | 4.88 ± 0.21 | 0.71 ± 0.04 | – | no inhibition | 83.44 ± 1.00 | – | – | – |
| CC(=O)OC1CCC2(C)C(CCC3(C)C2CC=C2C4CC(C)(C)CCC4(C(=O)NCCN4CCCCC4)CCC23C)C1(C)C (stereo not drawn) [Compound 42, (3β)-N-(2-Piperidin-1-ylethyl)-3-acetyloxy-olean-12-en-28-amide] | – | – | 45.57 ± 0.25 | – | – | – | – | 53.09 ± 0.14 | – | – | – | – | – |
| CC1(C)CCC2(C(=O)NCCN3CCCC3)CCC3(C)C(=CCC4C5(C)CCC(O)C(C)(C)C5CCC43C)C2C1 (stereo not drawn) [Compound 37, (3β)-N-(2-Pyrrolidin-1-ylethyl)-3-hydroxy-olean-12-en-28-amide] | – | – | – | – | mixed-type | > 50 | 0.55 ± 0.02 | – | 10.04 ± 1.70% | 74.50 ± 0.93 | – | – | – |
| C=C(C)C1CC[C@]2(C(=O)NCCN3CCCCC3)CC[C@]3(C)C(CCC4[C@@]5(C)CC[C@H](OC(C)=O)C(C)(C)C5CC[C@]43C)C12 (stereo partly drawn) [Compound 44] | – | – | 22.78 ± 0.85 | – | – | – | – | 33.83 ± 0.43 | – | – | – | – | – |
| C=C(C)C1CC[C@]2(C(=O)NCCN(C)C)CC[C@]3(C)C(CCC4[C@@]5(C)CC[C@H](O)C(C)(C)C5CC[C@]43C)C12 (stereo partly drawn) [Compound 29] | – | – | 22.12 ± 4.01 | – | mixed-type | 16.11 ± 0.18 | 3.52 ± 0.07 | 56.68 ± 0.01 | – | – | – | – | – |
| CC(=O)OC1CC2(C)C(CCC3(C)C2CC=C2C4CC(C)(C)CCC4(C(=O)NCCN4CCCC4)CCC23C)C(C)(C)C1OC(C)=O (stereo not drawn) [Compound 33, (2α,3β)-N-(2-Pyrrolidin-1-ylethyl)-2,3-diacetyloxy-olean-12-en-28-amide] | – | – | 23.47 ± 4.59 | – | – | – | – | 33.01 ± 2.91 | – | – | – | – | – |
| CC1(C)CC[C@]2(C(=O)NCCN)CC[C@]3(C)C(=CC[C@@H]4[C@@]5(C)CC[C@H](O)C(C)(C)[C@@H]5CC[C@]43C)[C@@H]2C1 [Compound 17, (3β)-N-(2-Aminoethyl)-3-hydroxy-olean-12-en-28-amide] | mixed-type | 18.24 ± 0.06 | – | 8.53 ± 0.34 | mixed-type | 7.68 ± 0.61 | 1.93 ± 0.13 | – | 88.61 ± 0.22% | 49.10 ± 0.47 | – | – | – |
| C=C(C)C1CC[C@]2(C(=O)NCCN3CCCCC3)CC[C@]3(C)C(CCC4[C@@]5(C)CC[C@H](O)C(C)(C)C5CC[C@]43C)C12 (stereo partly drawn) [Compound 49, (3β)-N-(2-piperidin-1-ylethyl)-3-hydroxy-lup-20(29)-en-28-amide] | mixed-type | 1.42 ± 0.08 | – | 1 ± 0.09 | mixed-type | > 8 | 2.52 ± 0.29 | – | 82.72 ± 0.09% | 66.02 ± 0.70 | – | – | – |
| CC(=O)OC1CC2(C)C(CCC3(C)C2CC=C2C4CC(C)(C)CCC4(C(=O)NCCN4CCCCC4)CCC23C)C(C)(C)C1OC(C)=O (stereo not drawn) [Compound 43, (2α,3β)-N-(2-Piperidin-1-ylethyl)-2,3-diacetyloxy-olean-12-en-28-amide] | – | – | 23.30 ± 0.10 | – | – | – | – | 53.47 ± 3.47 | – | – | – | – | – |
| CC(=O)OC1CCC2(C)C(CCC3(C)C2CC=C2C4CC(C)(C)CCC4(C(=O)NCCN)CCC23C)C1(C)C (stereo not drawn) [Compound 12, (3β)-N-(2-Aminoethyl)-3-acetyloxy-olean-12-en-28-amide] | – | – | 31.69 ± 0.04 | – | – | – | – | 57.54 ± 0.93 | – | – | – | – | – |
| CC1(C)CCC2(C(=O)NCCN)CCC3(C)C(=CCC4C5(C)CC(O)C(O)C(C)(C)C5CCC43C)C2C1 (stereo not drawn) [Compound 18, (2α,3β)-N-(2-Aminoethyl)-2,3-dihydroxy-olean-12-en-28-amide] | – | – | 39.15 ± 0.16 | – | – | – | – | 68.83 ± 1.57 | – | – | – | – | – |
| CN(C)CCNC(=O)C12CCC(C)(C)CC1C1=CCC3C4(C)CCC(O)C(C)(C)C4CCC3(C)C1(C)CC2 (stereo not drawn) [Compound 27, (3β)-N-[2-(Dimethylamino)-ethyl]-3-hydroxy-olean-12-en-28-amide] | – | – | – | – | mixed-type | 9.07 ± 0.02 | 1.31 ± 0.01 | – | 5.54 ± 0.07% | 67.10 ± 0.07 | 0.08 | – | – |
| CC(=O)OC1CC2(C)C(CCC3(C)C2CC=C2C4CC(C)(C)CCC4(C(=O)NCCN)CCC23C)C(C)(C)C1OC(C)=O (stereo not drawn) [Compound 13, (2α,3β)-N-(2-Aminoethyl)-2,3-diacetyloxy-olean-12-en-28-amide] | – | – | – | – | – | – | – | – | 31.91 ± 0.32% | 40.83 ± 0.21 | – | – | – |
| CC(=O)[C@@H]1CC[C@]2(C(=O)NCCN(C)C)CC[C@]3(C)[C@H](CC[C@@H]4[C@@]5(C)CC[C@H](O)C(C)(C)[C@@H]5CC[C@]43C)[C@@H]12 [Compound 30] | mixed-type | 74.05 ± 4.81 | 28.83 ± 0.80 | 15.5 ± 3.91 | mixed-type | 4.46 ± 0.01 | 1.12 ± 0.01 | 89.76 ± 0.48 | – | – | – | – | – |
| CN(C)CCNC(=O)[C@]12CCC(C)(C)C[C@H]1C1=CC[C@@H]3[C@@]4(C)C[C@@H](O)[C@H](O)C(C)(C)[C@@H]4CC[C@@]3(C)[C@]1(C)CC2 [Compound 28, (2α,3β)-N-[2-(Dimethylamino)-ethyl]-2,3-dihydroxy-olean-12-en-28-amide] | – | – | 13.47 ± 0.55 | – | mixed-type | 27.26 ± 3.47 | 2.2 ± 0.25 | 79.01 ± 0.29 | – | – | – | – | – |
| COc1ccc2c3c1O[C@H]1C[C@@H](O)C=C[C@@]31CCN(C)C2 [GH, Galantamine hydrobromide, reference compound] | – | – | – | – | competitive | – | – | – | – | – | – | 57.79 ± 0.52 | 80.25 ± 0.33 |

— paper PMC6429507, “Triterpene-Based Carboxamides Act as Good Inhibitors of Butyrylcholinesterase” (Molecules, 2019)
